Patent US20260224611A1, “POLYOL-B-POLYOXAZOLINE COPOLYMERS” (FREIE UNIVERSITÄT BERLIN, priority 2023, published 2026)

Experiments:
[1] = tested on: infected non-diabetic wounds; experiment: Wound healing animal study, infected non-diabetic wounds; format: in vivo; conditions: after 10 days, rats
Protocol: (§1) Based on these achievements, the efficiency of hPG-b-PEtO for diabetic wound healing in animals was investigated. For this purpose, an animal study was performed in two different groups of rats with infected non-diabetic wounds (FIG. 12A) and infected diabetic wounds (FIG. 12B). […] Saline buffer without additions was used as control. The ability of the copolymer to heal wounds was investigated by measuring the wound contraction at different treatment times.

infected diabetic wounds = experiment: Wound healing animal study, infected diabetic wounds; format: in vivo; conditions: after 10 days, rats
Protocol: as §1

How did the wound closure area [1] turn out when `O=C1NC(=O)C(c2ccccc2)(c2ccccc2)N1` [phenytoin] was run?
Its wound closure area is 90%.

And the wound closure area (infected diabetic wounds)?
The wound closure area was 62%.
